Measured values taken from article PMC5671894 (Journal of biological inorganic chemistry : JBIC : a …, 2017).
Where two headings read alike, the source gives them in different places.

Columns and labels:
[1] = tested on: PTP1B; details: substrate pNPP; cited from earlier work
[2] = target: PTP1B; details: ref Makinen, M. W. and Zhou, K. I., unpublished observations; cited from earlier work
[3] = tested on: Rat PTP1 (residues 1–323); details: 0.1 M ionic strength, pH 5.5; cited from earlier work
[4] = target: T1, soluble portion of human PTP1B (residues 1-321) (Homo sapiens, UniProt P18031); format: biochemical; details: substrate hydrolysis, no inhibitor; this study
T1 sequence (P18031 1-321): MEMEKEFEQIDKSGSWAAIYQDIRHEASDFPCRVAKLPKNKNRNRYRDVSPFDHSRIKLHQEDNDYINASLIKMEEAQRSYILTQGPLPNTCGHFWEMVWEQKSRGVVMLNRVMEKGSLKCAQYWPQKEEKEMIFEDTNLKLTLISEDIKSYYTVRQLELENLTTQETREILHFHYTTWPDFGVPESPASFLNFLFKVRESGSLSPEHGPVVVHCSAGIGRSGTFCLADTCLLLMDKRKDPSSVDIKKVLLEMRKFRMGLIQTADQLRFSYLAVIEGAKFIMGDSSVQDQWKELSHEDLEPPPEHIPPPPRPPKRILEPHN

[5] = target: T1, soluble portion of human PTP1B (residues 1-321); format: biochemical
[6] = target: T1, soluble portion of human PTP1B (residues 1-321); test: Steady-state inhibition of PTP1B-catalyzed hydrolysis of pNPP; format: biochemical; details: substrate pNPP; for Ki: 0.1 M NaCl, pH 5, 22° C, N2-purged
[7] = tested on: fused protein construct of glutathione-S-transferase and the full length PTP1B polypeptide chain (435 residues); details: substrate pNPP; cited from earlier work
[8] = tested on: PTP1B; details: substrate DADEpYLIPQQG; malachite green, 30 min, not steady-state; cited from earlier work

CCc1oc2cc(S(=O)(=O)Nc3ccc(S(N)(=O)=O)cc3)ccc2c1C(=O)c1cc(Br)c(O)c(Br)c1 [Compound 2, 3-(3,5-dibromo-4-hydroxy-benzoyl)-2-ethyl-benzofuran-6-sulfonic acid (4-sulfamoyl-phenyl)amide]
mode of inhibition [1]: noncompetitive inhibition

CC(=O)/C=C(/C)O [Mg(acac)2]
Ki [2]: > 600 µM

O=[N+]([O-])c1ccc(OP(=O)(O)O)cc1 [pNPP, para-nitrophenylphosphate]
Km [3]: 339 ± 16 µM
kcat [3]: 69.2 ± 1.1 s⁻¹
Km [4]: 460 ± 120 µM
kcat [4]: 62.9 ± 12.0 s⁻¹

CCc1occc(=O)c1[O-].CCc1occc(=O)c1[O-].[O]=[V+2] [VO(Et-malto)2, bis(2-ethyl-maltolato)oxidovanadium(IV)]
mode of inhibition ([5]; substrate EGFR^988-998 (DADEpYLIPQQG)): noncompetitive
Ki ([5]; substrate EGFR^988–998, 0.1 M NaCl, pH 6, 20° C, N2-purged): 0.14 ± 0.01 µM
mode of inhibition [6]: noncompetitive inhibition
Ki [6]: 14.8 ± 1.4 µM

Cc1occc(=O)c1[O-].Cc1occc(=O)c1[O-].[O]=[V+2] [VO(Me-malto)2, bis(2-methyl-maltolato)oxidovanadium(IV)]
mode of inhibition [7]: mixed inhibition

CC(=O)/C=C(/C)[O-].CC(=O)/C=C(/C)[O-].[O]=[V+2] [VO(acac)2, bis(acetylacetonato)oxidovanadium(IV)]
mode of inhibition [8]: uncompetitive behavior

Cc1[nH]ccc(=O)c1[O-].Cc1[nH]ccc(=O)c1[O-].[O]=[V+2] [VO(mpp)2, bis(3-hydroxy-2-methyl-4(1H)pyridinonato)oxidovanadium(IV)]
mode of inhibition [6]: competitive inhibition
Ki [6]: 38.2 ± 0.5 µM
